Experimental data as given in PubChem BioAssay AID1963856 (Molecular Pharmacology Branch, DTP, NCI, 2024).

Test system: LG0567-F671-PDC KRAS tumor spheroid viability
Experiment: Anticancer human tumor LG0567-F671-PDC patient-derived lung adenocarcinoma cell line growth inhibition [KRAS2]
Conditions: spheroids with HUVEC and MSC; for IC50: curve of first compound; for viability, T/C: stronger effect = lower value
Description: Multicellular complex tumor spheroid response to RAS pathway inhibitors in combination with a targeted agents in patient-derived cell lines with oncogenic KRAS variants from multiple cancer types
A high-throughput screen of multi-cell type tumor spheroids was designed to identify active combinations of targeted small molecules and KRAS pathway inhibitors. Complex spheroids include a stromal component modeled by human endothelial cells (HUVEC) and fibroblasts modeled by human mesenchymal stem cells (MSCs). The concentration ranges selected for each drug and investigational agent were based upon clinically achievable concentrations if the clinical Cmax of the agent was known.
Compounds. The drugs and investigational agents: BI-3406 (NSC825286), BAY-293 (NSC824723), batoprotafib (TNO155; NSC825523), sotorasib (AMG 510; NSC818433), MRTX1257 (NSC819558), elimusertib (BAY 1895344; NSC800525), molibresib (GSK525762; NSC774829), temuterkib (LY3214996; NSC803410), venetoclax (NSC766270), alisertib (NSC759677), olaparib (NSC753686), talazoparib (NSC767125), erdafitinib (NSC781556), ipatasertib (NSC767898), cabozantinib (NSC761068), nintedanib (NSC756659), abemaciclib (NSC768073), docetaxel (NSC628503), trametinib (NSC758246), and sapanisertib (NSC764658) were obtained from the National Cancer Institute (NCI) Developmental Therapeutics Program Chemical Repository. The FDA-approved anticancer drug set is available from the Developmental Therapeutics Program. […] The stock solutions were prepared in dimethyl sulfoxide (DMSO, Sigma-Aldrich, St. Louis, MO, cat. D2650) at 800-fold the tested concentration and stored at -70 degrees C prior to their use. All drugs and investigational agents were tested over a range starting from a high concentration at or near the clinical Cmax and decreasing in half-log increments. If the clinical Cmax for an agent had not been determined, the highest concentration tested was 10 microM.
Cell Culture. All cells were maintained in an incubator at 37 degrees C and 5% CO2 with 95% humidity. The PDC lines were cultured according to standard operating procedures established by the NCI PDMR (https://pdmr.cancer.gov/sops/default.htm). Briefly, all PDCs were thawed and cultured in Matrigel-coated flasks prepared with a working solution of 1X Ham's F-12 nutrient mix, without supplementation (Invitrogen, Waltham, MA, cat. 11765054), 100 U/mL penicillin-streptomycin (Invitrogen, cat. 15140122), and 2.5% Matrigel (Corning Inc., Corning, NY, cat. 354248) for the first three passages. All PDCs were cultured in complete DMEM/F-12 media containing advanced DMEM/F-12 (Invitrogen, cat. 12634028), 4.9% defined fetal bovine serum, heat inactivated (HyClone Laboratories Inc., Logan, UT, cat. SH30070.03HI), 389 ng/mL hydrocortisone (Sigma-Aldrich, cat. H4001), 9.7 ng/mL human EGF recombinant protein (Invitrogen, cat. PHG0313), 23.4 microg/mL adenine (Sigma-Aldrich, cat. A2786), 97.3 U/mL penicillin-streptomycin (Invitrogen, cat. 15140122), 1.9 mM L-glutamine (Invitrogen, cat. 25030081), and 9.7 microM Y-27632 dihydrochloride (Tocris Bioscience, Bristol, United Kingdom, cat. 1254). The PDCs were cultured in complete DMEM/F12 media without 9.7 microM Y-27632 dihydrochloride for at least two passages prior to the screen. The established cell line HOP-62 was cultured in RPMI 1640 medium, HEPES (Invitrogen, cat. 22400105) with 10% defined fetal bovine serum (HyClone Laboratories Inc., cat. SH30070.03) and 2 mM L-glutamine (Invitrogen, cat. 25030081). The pooled donor HUVEC were cultured in endothelial cell growth medium 2 (PromoCell, Heidelberg, Germany, cat. C-22011) and the hMSC were cultured in mesenchymal stem cell growth medium 2 (PromoCell, cat. C-28009). For all experiments, HUVEC and hMSC were used at passages </=5, while the malignant cell lines were used at passages </=15. […]

[1] = second compound 0.1 µM, first compound 0.0316 µM
[2] = second compound 0.1 µM, first compound 0.1 µM
[3] = second compound 0.1 µM, first compound 0.316 µM
[4] = second compound 0.1 µM, first compound 1 µM
[5] = second compound 0.1 µM, first compound 3.16 µM
[6] = second compound 0.1 µM, first compound 10 µM
[7] = second compound 0.316 µM, first compound 0.0316 µM
[8] = second compound 0.316 µM, first compound 0.1 µM
[9] = second compound 0.316 µM, first compound 0.316 µM
[10] = second compound 0.316 µM, first compound 1 µM
[11] = second compound 0.316 µM, first compound 3.16 µM
[12] = second compound 0.316 µM, first compound 10 µM
[13] = second compound 1 µM, first compound 0.0316 µM
[14] = second compound 1 µM, first compound 0.1 µM
[15] = second compound 1 µM, first compound 0.316 µM
[16] = second compound 1 µM, first compound 1 µM
[17] = second compound 1 µM, first compound 3.16 µM
[18] = second compound 1 µM, first compound 10 µM
[19] = second compound 3.16 µM, first compound 0.0316 µM
[20] = second compound 3.16 µM, first compound 0.1 µM
[21] = second compound 3.16 µM, first compound 0.316 µM
[22] = second compound 3.16 µM, first compound 1 µM
[23] = second compound 3.16 µM, first compound 3.16 µM
[24] = second compound 3.16 µM, first compound 10 µM
[25] = second compound 10 µM, first compound 0.0316 µM
[26] = second compound 10 µM, first compound 0.1 µM
[27] = second compound 10 µM, first compound 0.316 µM
[28] = second compound 10 µM, first compound 1 µM
[29] = second compound 10 µM, first compound 3.16 µM
[30] = second compound 10 µM, first compound 10 µM
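Further: drug exposure lasted seven days after spheroids formed for three days.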
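Wherever viability, T/C is given: 100% = DMSO vehicle control viability.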

Row | Structure (SMILES) | IC50 (second compound 0.1 µM) [µM] | IC50 (second compound 0.316 µM) [µM] | IC50 (second compound 1 µM) [µM] | IC50 (second compound 3.16 µM) [µM] | IC50 (second compound 10 µM) [µM] | viability, T/C [1] [%] | viability, T/C [2] [%] | viability, T/C [3] [%] | viability, T/C [4] [%] | viability, T/C [5] [%] | viability, T/C [6] [%] | viability, T/C [7] [%] | viability, T/C [8] [%] | viability, T/C [9] [%] | viability, T/C [13] [%] | viability, T/C [14] [%] | viability, T/C [19] [%] | viability, T/C [20] [%] | viability, T/C [25] [%] | viability, T/C [26] [%] | further results
1 | CC1(C)CCC(CN2CCN(c3ccc(C(=O)NS(=O)(=O)c4ccc(NCC5CCOCC5)c([N+](=O)[O-])c4)c(Oc4cnc5[nH]ccc5c4)c3)CC2)=C(c2ccc(Cl)cc2)C1 + C=CC(=O)N1CCN(c2nc(=O)n(-c3c(C)ccnc3C(C)C)c3nc(-c4c(O)cccc4F)c(F)cc23)C(C)C1 | < 0.0316 | < 0.0316 | < 0.0316 | < 0.0316 | < 0.0316 | 31.9 | 28.1 | 26.2 | 25.7 | 11.7 | 2.83 | 27.2 | 28.8 | 25.4 | 27.2 | 28.5 | 29 | 28.6 | 25.8 | 26.3 | viability, T/C [10]: 23.1%; viability, T/C [11]: 16.5%; viability, T/C [12]: 6.09%; viability, T/C [15]: 25.9%; viability, T/C [16]: 22.8%; viability, T/C [17]: 11.2%; viability, T/C [18]: 3.32%; viability, T/C [21]: 27.6%; viability, T/C [22]: 27.1%; viability, T/C [23]: 11.1%; viability, T/C [24]: 2.68%; viability, T/C [27]: 24.9%; viability, T/C [28]: 25.6%; viability, T/C [29]: 5.1%; viability, T/C [30]: 6.11%
2 | CC(C)n1nc(-c2ccc3oc(N)nc3c2)c2c(N)ncnc21 + CNCc1ccccc1-c1csc(C(C)Nc2nc(C)nc3cc(OC)c(OC)cc23)c1 | 0.0587 | 0.0107 | 0.0057 | < 0.000316 | < 0.000316 | 53.8 | 47.3 |  |  |  |  | 42.6 | 37.4 |  | 32.1 | 23.2 | 10.3 | 6 | 10.9 | 0.33 | viability, T/C (second compound 0.1 µM, first compound 0.000316 µM): 72.7%; viability, T/C (second compound 0.1 µM, first compound 0.001 µM): 76.2%; viability, T/C (second compound 0.1 µM, first compound 0.00316 µM): 65.5%; viability, T/C (second compound 0.1 µM, first compound 0.01 µM): 58.6%; viability, T/C (second compound 0.316 µM, first compound 0.000316 µM): 70.3%; viability, T/C (second compound 0.316 µM, first compound 0.001 µM): 65.5%; viability, T/C (second compound 0.316 µM, first compound 0.00316 µM): 59%; viability, T/C (second compound 0.316 µM, first compound 0.01 µM): 49%; viability, T/C (second compound 1 µM, first compound 0.000316 µM): 70.8%; viability, T/C (second compound 1 µM, first compound 0.001 µM): 73.6%; viability, T/C (second compound 1 µM, first compound 0.00316 µM): 52.5%; viability, T/C (second compound 1 µM, first compound 0.01 µM): 44.5%; viability, T/C (second compound 3.16 µM, first compound 0.000316 µM): 0.52%; viability, T/C (second compound 3.16 µM, first compound 0.001 µM): 1.53%; viability, T/C (second compound 3.16 µM, first compound 0.00316 µM): 2.23%; viability, T/C (second compound 3.16 µM, first compound 0.01 µM): 0.27%; viability, T/C (second compound 10 µM, first compound 0.000316 µM): 1.29%; viability, T/C (second compound 10 µM, first compound 0.001 µM): 0.51%; viability, T/C (second compound 10 µM, first compound 0.00316 µM): 0.14%; viability, T/C (second compound 10 µM, first compound 0.01 µM): 1.07%
3 | COc1cc2nccc(Oc3ccc(NC(=O)C4(C(=O)Nc5ccc(F)cc5)CC4)cc3)c2cc1OC + C=CC(=O)N1CCN(c2nc(=O)n(-c3c(C)ccnc3C(C)C)c3nc(-c4c(O)cccc4F)c(F)cc23)C(C)C1 | < 0.0316 | < 0.0316 | < 0.0316 | < 0.0316 | < 0.0316 | 24.2 | 20.6 | 21.3 | 18.9 | 10.8 | 48.9 | 21.5 | 19.1 | 17.1 | 22.3 | 23.9 | 21.8 | 23.4 | 18.3 | 18.4 | viability, T/C [10]: 14.9%; viability, T/C [11]: 9.77%; viability, T/C [12]: 51.1%; viability, T/C [15]: 17.6%; viability, T/C [16]: 17.3%; viability, T/C [17]: 9.01%; viability, T/C [18]: 55%; viability, T/C [21]: 20.3%; viability, T/C [22]: 16.8%; viability, T/C [23]: 8.81%; viability, T/C [24]: 50.4%; viability, T/C [27]: 17.6%; viability, T/C [28]: 13.7%; viability, T/C [29]: 10.7%; viability, T/C [30]: 29.2%
